Laboratory results as given in patent US20040214850A1, “1-glyoxylamide indolizines for treating cancer” (Synta Pharmaceuticals Corp., priority 2001, published 2004).

Legend:
[1] = Body weight of nude mice bearing MDA435 tumor during treatment; assay type: in vivo, nude mice (CD-1 nu/nu); conditions: 25 and 50 mg/kg orally
Protocol: (§1) The in vivo anti-cancer efficacy of Compound (1) was assessed in tumor bearing mice using a tumor growth inhibition assay. Human breast tumor (MDA-435) cells were implanted by injection of a tumor cell suspension subcutaneously in the flank of a nude mouse. Treatment of the tumor with an experimental compound began after the tumor had been established (volume was approximately 100 mm^3). The animal then began a multiple injection schedule where the compound was administered orally. Tumors were measured two times a week. During the course of this assay, animals were monitored daily for signs of toxicity including body weight loss.
A dosing solution for compound administration was prepared by dissolving 1 gram of Compound (1) in 10 ml of acetone (HPLC grade), and sonicated for 5 minutes using 550 Sonic Dismembrator. 1.2 equivalents of 1 N HCl aqueous solution were added to the acetone solution which was then sonicated for 5 minutes. All solvent was then evaporated from the solution by using Speed Vac Plus SC 250 DDA over night. The dried powder was used for preparing the dosing solution of Compound (1). 1% Methyl cellulose (MC) vehicle was prepared by dissolving 1.0 gram of Methyl cellulose, 400 cps, U.S.P. (Spectrum Laboratory Products, Cat. # ME136) in 100 mL of H2O. This mixture was then stirred for 12 hours at room temperature to produce a clear 1% MC solution. […]

[2] = tested on: human breast MDA435 tumors; test: Tumor growth inhibition assay, human breast tumor (MDA435) xenograft in nude mice; assay type: in vivo, nude mice (CD-1 nu/nu)
Protocol: as §1
A supplemented media was prepared from 50% DMEM/Dulbecco Modified Eagle Medium (High Glucose), 50% RPMI 1640, 10% FBS/Fetal Bovine Serum (Hybridoma Tested; Sterile Filtered), 1% L-Glutamine, 1% Penicillin-Streptomycin, 1% MEM Sodium Pyruvate, 1% MEM Non-Essential Amino Acids. […]
The flask was washed with 10 ml of sterile room temperature phosphate buffered saline (PBS). […] The supernatant was aspirated and the cell pellet was resuspended in 10 ml of supplemented media and the cells were counted. […]
The above procedure for trypsinizing and centrifuging the cells were followed. The supernatant was aspirated and the cell pellet was resuspended in 10 ml of sterile PBS and the cells were counted. […]

U937 (human leukemia) = test: In vitro anti-cancer activity, MTS growth inhibition assay, U-937; assay type: cell-based; conditions: U-937 cells, 72 hours
Protocol: (§2) The in vitro activity of the compounds was determined in the following seven human cancer cell lines. MDA435 (human breast cancer), MIP101 (human colon cancer), HL-60 (human myeloid leukemia), U937 (human leukemia), p388 (murine leukemia), DU-145 (human prostate cancer), MES-SA (human uterine sarcoma) were obtained from ATCC (American Type of Culture Collection).
(§3) The cell lines were maintained in RPMI1640 (GIBCO) supplemented with 10% FCS, 100 units/ml penicillin, 100 ug/ml streptomycin, and 2 mM L-glutamine. The cells were split every third day and diluted to a concentration of 2×10^5 cells/ml one day before experiment. All experiments were performed on exponentially growing cell culture. Cell densities were 2.5×10^4 cells/ml in all experiment.
(§4) A stock solution of Compound (1) and a stock solution of Taxol (positive control) were prepared by dissolving the compound at a concentration of 1 mM in 100% DMSO. Final concentrations were obtained by diluting the stock solution directly into the tissue culture medium. Cells were incubated with varying concentrations of the compounds for 72 hours and the IC50 was determined by MTS (i.e. 3-(4,5,-dimethylthiazol-2-yl)-2,5-diphenyl tetrazolium bromide) assay. IC50 stands for the concentration of compound required to inhibit 50% tumor cell growth.

[3] = tested on: HL-60 (human myeloid leukemia); test: In vitro anti-cancer activity, MTS growth inhibition assay, HL-60; assay type: cell-based; conditions: HL-60 cells, 72 hours
Protocol: as §2, §3, §4

In the case of `Cc1cc(NC(=O)C(=O)c2cc(Cc3ccc(C#N)cc3)n3ccccc23)sn1` [Compound (1), 2-(3-(4-cyanobenzyl)-indolizin-1-yl)-N-(3-methyl-isothiazol-5-yl)-2-oxo-acetamide], the body weight change ([1]; FIG. 2) is reported as “without showing significant body weight loss”, the body weight change ([1]; FIG. 2, listed as Compound 1) is reported as “Little or no change in body weight” and the tumor growth inhibition ([2]; MDA435 in nude mice, 25 mg/kg and 50 mg/kg orally, 3 times a week for 3 weeks, FIG. 1) is reported as “significantly inhibits tumor growth”. The “reduction of the volume of tumors” value ([2]; MDA435 tumors in nude mice, administered orally) was “greater than 50%”, the IC50 (U937 (human leukemia)) was 50 nM and the IC50 [3] was 10 nM.
